Laboratory results: ChEMBL document CHEMBL4219065, “Progress in the Development of Preventative Drugs for Cisplatin-Induced Hearing Loss” (J Med Chem, 2018)

Legend:
[1] = Terminal half life in rat; settings: in vivo
[2] = system: Homo sapiens; experiment: Protection against cisplatin-induced ototoxicity in human assessed as reduction in hearing loss administered iv 35 mins prior to cisplatin treatment; type: functional; parameters: scale not given: the % may be the effect or the level left

`[14CH3]SCC[C@@H](N)C(=O)O` showed a half-life [1] of 34.2 min.

Work on `NCCCNCCSP(=O)(O)O` [AMIFOSTINE] yielded an Activity [2] of 43%.
